Test results as given in patent US8604044B2, “Quinazoline based EGFR inhibitors containing a zinc binding moiety” (Curis, Inc., priority 2006, dated 2013).
Read-outs that look alike come from different tables or passages of the source.

Legend:
human EGFR = biological target: T1, human EGFR (Homo sapiens, UniProt P00533); experiment: HTScan EGF Receptor Kinase Assay; type: biochemical; conditions: FIG. 1
T1 construct: human EGFR (His672-Ala1210); purchased Cell Signaling Technologies; host or cells: baculovirus expression system
T1 sequence (P00533 672-1210): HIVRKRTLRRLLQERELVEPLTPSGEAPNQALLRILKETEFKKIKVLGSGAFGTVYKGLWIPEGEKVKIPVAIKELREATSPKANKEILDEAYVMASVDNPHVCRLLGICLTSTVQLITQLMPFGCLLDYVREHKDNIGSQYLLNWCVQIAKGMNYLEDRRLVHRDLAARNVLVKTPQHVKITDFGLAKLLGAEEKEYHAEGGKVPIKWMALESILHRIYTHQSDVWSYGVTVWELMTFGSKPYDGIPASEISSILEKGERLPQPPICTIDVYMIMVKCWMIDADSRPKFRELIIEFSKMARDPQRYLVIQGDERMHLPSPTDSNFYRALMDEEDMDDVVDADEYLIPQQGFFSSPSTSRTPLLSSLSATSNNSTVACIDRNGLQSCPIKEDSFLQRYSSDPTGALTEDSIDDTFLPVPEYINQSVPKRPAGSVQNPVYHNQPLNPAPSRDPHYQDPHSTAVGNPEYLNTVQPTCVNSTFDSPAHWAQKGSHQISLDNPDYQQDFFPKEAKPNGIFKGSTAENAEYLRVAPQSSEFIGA
Method: The ability of compounds to inhibit receptor kinase (EGFR) activity was assayed using HTScan™ EGF Receptor Kinase Assay Kits (Cell Signaling Technologies, Danvers, Mass.). […] The protein was purified by one-step affinity chromatography using glutathione-agarose.
Immediately transfer enzyme from −80° C. to ice. Allowed enzyme to thaw on ice. […] Returned immediately to ice. […] Incubated reaction plate at room temperature for 30 minutes. […] Added 100 μl/well primary antibody. Incubated at room temperature for 60 minutes. […] Added 100 μl/well diluted antibody. Incubated at room temperature for 30 minutes. […] Incubated at room temperature for 5 minutes.

Caki-1 = experiment: Cell proliferation assay (Table D); type: cell-based; conditions: Homo sapiens, Renal carcinoma, read-out: IC50 grading Caki-1
[1] = tested on: various cancer cell lines; experiment: Cell proliferation assay, various cancer cell lines (general statements); type: cell-based; conditions: Table D
Method: Cancer cell lines were plated at 5,000 to 10,000 per well in 96-well flatted bottomed plates with various concentration of compounds. The cells were incubated with compounds for 72 hours in the presence of 0.5% of fetal bovine serum. Growth inhibition was accessed by adenosine triphosphate (ATP) content assay using Perkin Elmer ATPlite kit. ATPlite is an ATP monitoring system based on firefly luciferase. Briefly, 25 μl of mammalian cell lysis solution was added to 50 μl of phenol red-free culture medium per well to lyse the cells and stabilize the ATP. 25 μl of substrate solution was then added to the well and subsequently the luminescence was measured.

[2] = tested on: HDAC in MDA-MB-468 breast cancer cell line; experiment: Ac-H4 / Ac-H3 accumulation in MDA-MB-468 breast cancer cell line (FIG. 2); type: cell-based; conditions: MDA-MB-468, Ac-H4 and Ac-H3 accumulation
[3] = tested on: EGFR in MDA-MB-468 breast cancer cell line; experiment: EGFR phosphorylation in MDA-MB-468 breast cancer cell line (FIG. 2); type: cell-based; conditions: MDA-MB-468, FIG. 2
[4] = tested on: HCT-116 (colon) and SKBr3 (breast) cancer cells; experiment: Induction of apoptosis, Caspase 3&7 activity (FIG. 4); type: cell-based; conditions: 24 hours
[5] = Pharmacokinetic study of compound 12 formulation in mice; type: in vivo; conditions: hydrochloride salt in 30% CAPTISOL
Method: Drug Preparation and Administration. […] Compound was administered via an intravenous (iv) infusion.
Plasma samples were prepared by protein precipitation. An internal standard was added into plasma samples. […] The supernatant was then injected onto LC/MS/MS.
Tissues were homogenized in 0.8 ml water. An internal standard was added into the tissue homogenates.

[6] = Pharmacokinetic study of compound 12 formulation in rats; type: in vivo; conditions: 20 and 60 mg/kg iv, hydrochloride salt in 30% CAPTISOL, over thirty hours, FIG. 14
[7] = tested on: HPAC pancreatic cancer cells; experiment: HPAC pancreatic cancer xenograft; type: in vivo, mice; conditions: 120 mg/kg in 30% CAPTISOL (iv/ip) daily vs 50 mg/kg erlotinib (po) or vehicle, FIG. 12A
Method: 1-10×10^6 human cancer cells were implanted subcutaneously to the athymic (nu/nu) mice. When the tumors reached about 100 mm^3 in volume, the mice were treated with the compound by tail vein infusion. Routinely 5 groups (8-12 mice per group) are needed for a typical efficacy study, including one negative control, one positive control, and three testing groups for 3 dose levels of the same compound. Usually a 7-7-5 (on-off-on) regimen was used for one typical study. The tumor size was measured with an electronic caliper and body weight measured with a scale twice weekly. The tumors were removed from euthanized mice at the end of the study. One half of each tumor was frozen in dry ice and stored at −80° C. for PK or Western blot analysis. The other half was fixed with formalin. The fixed tissues were processed, embedded in paraffin and sectioned for immunohistochemistry staining.

[8] = male, CD-1, mouse, in vivo, iv, 9 days
[9] = male, CD-1, mouse, in vivo, ip, 7 days
[10] = both, Sprague Dawley, rat, in vivo, iv, 8 days
[11] = Pharmacokinetic study of compound 12 formulation in mice; type: in vivo; conditions: IP Dose 20 mg/kg, hydrochloride salt in 30% CAPTISOL
[12] = Captisol formulation of compound 12: solubility, pH, dilution, stability

With `C#Cc1cccc(Nc2ncnc3cc(OC)c(OCCCCCCC(=O)NO)cc23)c1` [Compound 12, 7-(4-(3-ethynylphenylamino)-7-methoxyquinazolin-6-yloxy)-N-hydroxyheptanamide] the “activity in EFGR enzyme assay compared with erlotinib” value (human EGFR) was “more active”, the IC50 (Caki-1) was at most 0.05 µM and the “activity in various cancer cell lines compared with Erlotinib and SAHA” value [1] was “more active than Erlotinib and SAHA”. For the same compound, the “histone H3/H4 acetylation accumulation compared with SAHA” value [2] was “improvement”, the “inhibition of EGFR phosphorylation compared with Erlotinib” value [3] was “improvement” and the “cell apoptosis measured by increased Caspase 3&7 activity, times more” value [4] was 4-11 times. The “dose proportionality of concentration” value ([5]; 20 and 60 mg/kg, iv and ip) was “dose proportional when administered intravenously but not intraperitoneally”, the “T ½” value ([5]; IP Dose 20 mg/kg, Lung) was 2.2 h and the AUC ([5]; IV Dose 20 mg/kg, Colon) was 5529 ng·h/mL. The Cmax ([5]; IV Dose 20 mg/kg, Colon) was 8.5 µM, the “T ½” value ([5]; IV Dose 20 mg/kg, Colon) was 1.7 h and the AUC ([5]; IV Dose 20 mg/kg, Lung) was 1571 ng·h/mL. The Cmax ([5]; IV Dose 20 mg/kg, Lung) was 15.2 µM, the “T ½” value ([5]; IV Dose 20 mg/kg, Lung) was 3.9 h and the AUC ([5]; IV Dose 20 mg/kg, Plasma) was 715 ng·h/mL. For the same compound, the Cmax ([5]; IV Dose 20 mg/kg, Plasma) was 27.7 µM, the “T ½” value ([5]; IV Dose 20 mg/kg, Plasma) was 0.2 h and the “half-life in tissue compared with plasma” value [5] was “greater than that in plasma”. The “plasma concentration versus dose” value [6] was “proportional to the dose”, the “attenuation of tumor growth” value [7] was “greater attenuation of tumor growth than either erlotinib (po) or vehicle” and the “dose not resulting in a significant change in body weight” value [8] was “up to 200 mg/kg”. For the same compound, the “dose not resulting in a significant change in body weight” value [9] was “up to 100 mg/kg”, the “dose not resulting in a significant change in body weight” value [10] was “up to 200 mg/kg” and the AUC ([11]; Lung) was 4433 ng·h/mL. It also gave a Cmax ([11]; Lung) of 7.8 µM, an AUC ([11]; Plasma) of 3751 ng·h/mL and a Cmax ([11]; Plasma) of 8.5 µM. For the same compound, the “T ½” value ([11]; Plasma) was 0.26 h, the stability of solution ([12]; 25 mg/ml in 30% Captisol with tartaric acid) was “stable at room temperature” and the “chemically stable and in solution without precipitation after dilution” value ([12]; formulations from A (i), diluted with D5W 10-, 20-, and 50-fold) was over 48 h. The “remained in solution without precipitation after dilution” value ([12]; formulations from A (ii) citric acid, A (iii) hydrochloric acid, A (iiii) sodium salt, diluted with D5W 10-fold) was over 12 h, the “chemical stability of lyophilisate” value ([12]; lyophilisate from A (i) (tartaric acid, 25 mg/ml), −20° C., room temperature, and 40° C.) was “at least 2 weeks” and the “storage of lyophilisate without decomposition” value ([12]; lyophilisate from A (i), 4° C.) was “greater than 2 weeks”. The stability of lyophilisate ([12]; lyophilisate from A (iii) (hydrochloric acid), −20° C.) was “at least two weeks”.
